Entries after “also recorded” stand apart in the source; their conditions may differ.
Legend:
[1] = test system: IGF1R-sal, Colo205, RD1, HT-29, WiDr, GEO, MDA-PCa-2b, MCF-7, H3396, N-87, BT474, and SKBR3 cell lines; test: Drug combination study (Dilution of Ratios) in cellular proliferation assays; settings: for Combination Result: in vitro combination with compound 1, multiple cell lines, analyzed by Isobolograms
H513 = test: In vitro cellular proliferation assay ([3H]-thymidine incorporation); type: cell-based, human
Method: (§1) All pediatric sarcoma and neuroblastoma cell lines were obtained from Dr. Lee Helman at NIH. All cell lines were grown in RPMI medium supplemented with Glutamax (Gibco/Invitrogen #61870-036), 10% inactivated fetal bovine serum (Gibco/Invitrogen #16140-071), 10 mM Hepes, penicillin and streptomycin.
(§2) Cells were plated at an optimized density for each cell line per well in 96-well microtiter Falcon plates, incubated overnight, and then exposed to a serial dilution of drug. After 72 hours incubation with drug at 37° C., cells were pulsed with 4 μCi/ml [6-3H] thymidine (Amersham Pharmacia Biotech, UK) for 3 hours, trypsinized, harvested onto UniFilter-96, GF/B plates (PerkinElmer, Boston, Mass.) and scintillation was measured on a TopCount NXT (Packard, Conn.). Results were expressed as an IC50, which is the drug concentration required to inhibit cell proliferation by 50% to that of untreated control cells. The mean IC50 and standard deviation (SD) from multiple tests for each cell line were calculated.

Rh41 = test: as above; type: cell-based, human
Method: as §1, §2

SW-684 = test: as above; type: cell-based, human
Method: as §1, §2

SK-NAS = test: as above; type: cell-based, human
Method: as §1, §2

H211 = test: as above; type: cell-based, human
Method: as §1, §2

To184.T = test: as above; type: cell-based, human
Method: as §1, §2

HT1080/S = test: as above; type: cell-based, human
Method: as §1, §2

H2052 = test: as above; type: cell-based, human
Method: as §1, §2

SA-4 = test: as above; type: cell-based, human
Method: as §1, §2

TC32 = test: as above; type: cell-based, human
Method: as §1, §2

VW = test: as above; type: cell-based, human
Method: as §1, §2

Rh36 = test: as above; type: cell-based, human
Method: as §1, §2

TC71 = test: as above; type: cell-based, human
Method: as §1, §2

ME = test: as above; type: cell-based, human
Method: as §1, §2

H2595 = test: as above; type: cell-based, human
Method: as §1, §2

5838 = test: as above; type: cell-based, human
Method: as §1, §2

CTR = test: as above; type: cell-based, human
Method: as §1, §2

Rh4 = test: as above; type: cell-based, human
Method: as §1, §2

SHSY5Y = test: as above; type: cell-based, human
Method: as §1, §2

IMR-32 = test: as above; type: cell-based, human
Method: as §1, §2

LAN-1 = test: as above; type: cell-based, human
Method: as §1, §2

JD = test: as above; type: cell-based, human
Method: as §1, §2

SK-LMS-1 = test: as above; type: cell-based, human
Method: as §1, §2

KAG = test: as above; type: cell-based, human
Method: as §1, §2

HTB-92 = test: as above; type: cell-based, human
Method: as §1, §2

Rh1 = test: as above; type: cell-based, human
Method: as §1, §2

LG = test: as above; type: cell-based, human
Method: as §1, §2

RDES = test: as above; type: cell-based, human
Method: as §1, §2

SK-NSH = test: as above; type: cell-based, human
Method: as §1, §2

In the case of `C[C@@]1(C(=O)Nc2ccc(F)nc2)CCCN1c1nc(Nc2cc(C3CC3)[nH]n2)c2cccn2n1` [Compound 2, (2S)-1-(4-((5-cyclopropyl-1H-pyrazol-3-yl)amino)pyrrolo[2,1-f][1,2,4]triazin-2-yl)-N-(6-fluoro-3-pyridinyl)-2-methyl-2-pyrrolidinecarboxamide], the “Combination result of compound 2” value ([1]; compound 2 with HER1/HER2 inhibitors or dasatinib, data not shown) is reported as “synergy effects”, the “Sensitivity Classification” value (H513; H513 (Melignant Pleural Mesothelioma)) is reported as “R (“R” means resistant to the corresponding compounds.)” and the IC50 (H513; Homo sapiens, H513, 72 h) is reported as 4.45 µM. For the same compound, the IC50 (Rh41; Homo sapiens, Rh41, 72 h) was 4.7 nM, the “Sensitivity Classification” value (Rh41; Rh41 (Rhabdomyosarcoma)) was “S (“S” means sensitive)” and the IC50 (SW-684; Homo sapiens, SW684, 72 h) was 5 µM. The “Sensitivity Classification” value (SW-684; SW-684 (Fibrosarcoma)) was “R (“R” means resistant to the corresponding compounds.)”, the IC50 (SK-NAS; Homo sapiens, SK-N-AS, 72 h) was 497 nM and the “sensitivity/resistance classification in words” value (SK-NAS; SK-NAS) was “resistant”. For the same compound, the “Sensitivity Classification” value (SK-NAS; SK-NAS (Neuroblastoma)) was “R (“R” means resistant to the corresponding compounds.)”, the “Sensitivity Classification” value (H211; H211 (Melignant Pleural Mesothelioma)) was “R (“R” means resistant to the corresponding compounds.)” and the IC50 (H211; Homo sapiens, NCI-H211, 72 h) was 733 nM. The IC50 (To184.T; Homo sapiens, 72 h) was 470 nM, the “Sensitivity Classification” value (To184.T; To184.T (Liposarcoma)) was “R (“R” means resistant to the corresponding compounds.)” and the “Sensitivity Classification” value (HT1080/S; HT1080/S (Fibrosarcoma)) was “R (“R” means resistant to the corresponding compounds.)”. For the same compound, the IC50 (HT1080/S; Homo sapiens, HT-1080, 72 h) was 531 nM, the “Sensitivity Classification” value (H2052; H2052 (Melignant Pleural Mesothelioma)) was “R (“R” means resistant to the corresponding compounds.)” and the IC50 (H2052; Homo sapiens, NCI-H2052, 72 h) was 1050 nM. The IC50 (SA-4; Homo sapiens, 72 h) was 1300 nM, the “Sensitivity Classification” value (SA-4; SA-4 (Liposarcoma)) was “R (“R” means resistant to the corresponding compounds.)” and the IC50 (TC32; Homo sapiens, TC-32, 72 h) was 8.4 nM. For the same compound, the “Sensitivity Classification” value (TC32; TC32 (Ewing)) was “S (“S” means sensitive)”, the IC50 (VW; Homo sapiens, 72 h) was 19 nM and the “Sensitivity Classification” value (VW; VW (Ewing)) was “S (“S” means sensitive)”. For the same compound, the IC50 (Rh36; Homo sapiens, 72 h) was 1430 nM, the “Sensitivity Classification” value (Rh36; Rh36 (Rhabdomyosarcoma)) was “R (“R” means resistant to the corresponding compounds.)” and the IC50 (TC71; Homo sapiens, TC-71, 72 h) was 14.3 nM. For the same compound, the “Sensitivity Classification” value (TC71; TC71 (Ewing)) was “S (“S” means sensitive)”, the IC50 (ME; Homo sapiens, 72 h) was 15 nM and the “Sensitivity Classification” value (ME; ME (Rhabdomyosarcoma)) was “S (“S” means sensitive)”. For the same compound, the “Sensitivity Classification” value (H2595; H2595 (Melignant Pleural Mesothelioma)) was “R (“R” means resistant to the corresponding compounds.)”, the IC50 (H2595; Homo sapiens, NCI-H2595, 72 h) was 4.48 µM and the “Sensitivity Classification” value (5838; 5838 (Ewing)) was “S (“S” means sensitive)”. The IC50 (5838; Homo sapiens, 72 h) was 34 nM, the “sensitivity/resistance classification in words” value (CTR; CTR) was “sensitive” and the “Sensitivity Classification” value (CTR; CTR (Rhabdomyosarcoma)) was “S (“S” means sensitive)”. For the same compound, the IC50 (CTR; Homo sapiens, 72 h) was 253 nM, the IC50 (Rh4; Homo sapiens, Rh4, 72 h) was 4 nM and the “Sensitivity Classification” value (Rh4; Rh4 (Rhabdomyosarcoma)) was “S (“S” means sensitive)”. The IC50 (SHSY5Y; Homo sapiens, SH-SY5Y, 72 h) was 106 nM, the “Sensitivity Classification” value (SHSY5Y; SHSY5Y (Neuroblastoma)) was “S (“S” means sensitive)” and the IC50 (IMR-32; Homo sapiens, IMR-32, 72 h) was 261 nM. For the same compound, the “Sensitivity Classification” value (IMR-32; IMR-32 (Neuroblastoma)) was “S (“S” means sensitive)”, the IC50 (LAN-1; Homo sapiens, LAN1, 72 h) was 40 nM and the “Sensitivity Classification” value (LAN-1; LAN-1 (Neuroblastoma)) was “S (“S” means sensitive)”. For the same compound, the IC50 (JD; Homo sapiens, 72 h) was 391 nM, the “sensitivity/resistance classification in words” value (JD; JD) was “resistant” and the “Sensitivity Classification” value (JD; JD (Ewing)) was “R (“R” means resistant to the corresponding compounds.)”. For the same compound, the IC50 (SK-LMS-1; Homo sapiens, SK-LMS-1, 72 h) was 687 nM, the “Sensitivity Classification” value (SK-LMS-1; SK-LMS-1 (Leiomyosarcoma)) was “R (“R” means resistant to the corresponding compounds.)” and the IC50 (KAG; Homo sapiens, 72 h) was 1660 nM. For the same compound, the “Sensitivity Classification” value (KAG; KAG (Ewing)) was “R (“R” means resistant to the corresponding compounds.)”, the “Sensitivity Classification” value (HTB-92; HTB-92 (Liposarcoma)) was “R (“R” means resistant to the corresponding compounds.)” and the IC50 (HTB-92; Homo sapiens, 72 h) was 1020 nM. For the same compound, the IC50 (Rh1; Homo sapiens, RH-1, 72 h) was 26.7 nM, the “Sensitivity Classification” value (Rh1; Rh1 (Rhabdomyosarcoma)) was “S (“S” means sensitive)” and the IC50 (LG; Homo sapiens, 72 h) was 37.5 nM. For the same compound, the “Sensitivity Classification” value (LG; LG (Ewing)) was “S (“S” means sensitive)”, the IC50 (RDES; Homo sapiens, RD-ES, 72 h) was 11.7 nM and the “Sensitivity Classification” value (RDES; RDES (Ewing)) was “S (“S” means sensitive)”. The IC50 (SK-NSH; Homo sapiens, SK-N-SH, 72 h) was 139 nM and the “Sensitivity Classification” value (SK-NSH; SK-NSH (Neuroblastoma)) was “S (“S” means sensitive)”.
In the case of `N.N.[Cl][Pt][Cl]` [cisplatin], the “Combination Result” value [1] is reported as “Additive”.
With `CC[C@]1(O)C[C@H]2CN(CCc3c([nH]c4ccccc34)[C@@](C(=O)OC)(c3cc4c(cc3OC)N(C=O)[C@H]3[C@@](O)(C(=O)OC)[C@H](OC(C)=O)[C@]5(CC)C=CCN6CC[C@]43[C@@H]65)C2)C1` [vincristine] the “Combination Result” value [1] was “Additive”.
`COc1cc([C@@H]2c3cc4c(cc3[C@@H](O[C@@H]3O[C@@H]5CO[C@@H](C)O[C@H]5[C@H](O)[C@H]3O)[C@H]3COC(=O)[C@H]23)OCO4)cc(OC)c1O` [VP-16] was tested, and the “Combination Result” value [1] was “Additive”.
In the case of `CC(=O)O[C@H]1C(=O)[C@@]2(C)[C@H]([C@H](OC(=O)c3ccccc3)[C@]3(O)C[C@H](OC(=O)[C@H](O)[C@@H](NC(=O)c4ccccc4)c4ccccc4)C(C)=C1C3(C)C)[C@]1(OC(C)=O)CO[C@@H]1C[C@@H]2O` [paclitaxel], the “Combination Result” value [1] is reported as “Additive”.
For `CS(=O)(=O)CCNCc1ccc(-c2ccc3ncnc(Nc4ccc(OCc5cccc(F)c5)c(Cl)c4)c3c2)o1` [lapatinib], the “Combination Result” value [1] was “synergistic effects; also recorded: Synergy”.
In the case of `C#Cc1cccc(Nc2ncnc3cc(OCCOC)c(OCCOC)cc23)c1` [erlotinib], the “Combination Result” value [1] is reported as “synergistic effects; also recorded: Synergy”.
`COc1cc2ncnc(Nc3ccc(F)c(Cl)c3)c2cc1OCCCN1CCOCC1` [gefitnib] was tested, and the “Combination Result” value [1] was “synergistic effects; also recorded: Synergy”.

— US8492328B2, “Biomarkers and methods for determining sensitivity to insulin growth factor-1 receptor modulators” (Bristol-Myers Squibb Company, priority 2007, dated 2013)
